# Results: PubChem BioAssay (NCI)
# Values joined by “and” are separate entries in the source; they are usually repeats but may differ in a detail not shown here. Equal entries are not always repeated.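 All cell lines were grown in 96-well plates and treated with compound for 48 hours. The concentration for 50% growth inhibition is given as GI50. TGI: concentration producing complete growth inhibition.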
# Columns and labels:
# Test in all cases: NCI-60 cell line screen, 48 h
# MALME-3M melanoma = system: MALME-3M melanoma
# NCI-H460 lung = system: NCI-H460 lung
# TK-10 renal = system: TK-10 renal
# NCI/ADR-RES ovarian = system: NCI/ADR-RES ovarian
# SF-539 CNS = system: SF-539 CNS
# CAKI-1 renal = system: CAKI-1 renal
# M14 melanoma = system: M14 melanoma
# MCF7 breast = system: MCF7 breast
# OVCAR-5 ovarian = system: OVCAR-5 ovarian
# HCT-116 colon = system: HCT-116 colon
SMILES,GI50 (MALME-3M melanoma) [µM],TGI (MALME-3M melanoma),GI50 (NCI-H460 lung) [µM],TGI (NCI-H460 lung),GI50 (TK-10 renal) [µM],TGI (TK-10 renal),GI50 (NCI/ADR-RES ovarian) [µM],TGI (NCI/ADR-RES ovarian) [µM],GI50 (SF-539 CNS) [µM],TGI (SF-539 CNS),GI50 (CAKI-1 renal) [µM],TGI (CAKI-1 renal),GI50 (M14 melanoma) [µM],TGI (M14 melanoma),GI50 (MCF7 breast) [µM],TGI (MCF7 breast),GI50 (OVCAR-5 ovarian) [µM],TGI (OVCAR-5 ovarian),GI50 (HCT-116 colon) [µM],TGI (HCT-116 colon)
O=c1[nH]nc(-c2ccccc2)c2c(-c3ccccc3)onc12,0.751,> 90 µM,0.383,> 62.6 µM,0.999,> 100 µM,0.331,> 100,0.351,1.79 µM,0.728,> 100 µM,0.329,> 100 µM,0.368,> 100 µM,> 62.8,> 100 µM,0.333,> 100 µM
O=[N+]([O-])c1cc2c(ccc3occc32)o1,1.54,3.11 µM,–,–,5.46,31.5 µM,3.28,30.9,2.02,4.55 µM,1.87,4.57 µM,1.41,3 µM,0.701,21.2 µM,3.5,15.4 µM,1.34,5.73 µM
CC(=O)n1c(-c2ccc(Cl)c(Cl)c2)cn(-c2ccc(Cl)cc2)c1=O,32,> 100 µM,30.8,> 100 µM,18.7,38 µM,35.2,> 100,14.1,31.9 µM,20.8,43.9 µM,27.6,> 100 µM,30.8,> 100 µM,55,> 100 µM,19.6,> 100 µM
CC1=NN(C(=O)c2nn(-c3ccc(Cl)cc3)cc2O)C(=O)C1,9.29,99.5 µM,0.41,> 52.7 µM,0.578,> 100 µM,1.83,> 52.2,1.9,> 87.4 µM,1.89,26.4 µM,2.8,> 53.5 µM,4.65,> 100 µM,–,> 78.9 µM,0.743,> 100 µM
CN(C)c1ncnc2c1ccn2C1OC(CO)C(O)C1O (centres undefined),92.6,> 100 µM,4.19,> 100 µM,1.83,> 100 µM,1.3,> 30.1,> 33.5,> 100 µM,1.58,> 39.8 µM,16.1,> 100 µM,0.115,7.32 µM,5.51,> 100 µM,2.97,> 100 µM
CC(C)=CCc1cc(C2COc3cc4c(c(O)c3C2=O)C=CC(C)(C)O4)c(O)cc1O (centres undefined),–,28.3 µM,–,27.4 µM,–,31.7 µM,–,79.4,–,34.3 µM,–,30.9 µM,–,26.2 µM,–,33.5 µM,–,29.7 µM,–,54.5 µM
COc1cc2nncc(SCc3ccc(Cl)c(Cl)c3)c2cc1OC,–,> 100 µM,–,> 100 µM,–,> 100 µM,–,> 100,–,> 100 µM,–,> 100 µM,–,> 100 µM,–,> 100 µM,–,> 100 µM,–,> 100 µM
CN(CCCN(C)CCC1CCCCC1)CCC1CCCCC1,1.39,3.03 µM,2.65,6.7 µM,1.62,3.55 µM,6.6,20.1,1.7,3.53 µM,1.52,3.82 µM,1.27,2.59 µM,1.62,3.28 µM,2.98,10.7 µM,2.52,7.45 µM
O=C1c2ccn(CCCCN(CCO)CCO)c2C(=O)c2c1c(O)c1ccccc1c2O,10,35.2 µM,7.1,26.1 µM,6.66,29.6 µM,3.31,12.7,7.88,> 80.6 µM,8.24,21.7 µM,2.37,–,6.12,> 58.1 µM,19.1,45 µM,2.04,–
Cc1ccc(-c2c3c(N)c4c(nc3nc3c2c(C)nn3-c2ccccc2)CCC4)cc1,18.4,39.1 µM,2.02,4.44 µM,2.43,5.42 µM,8.23,32.3,1.86,3.46 µM,6.89,16.6 µM,6.25,20.1 µM,1.75,4.34 µM,5.69,13.1 µM,1.57,3.41 µM
CN(C)C(=S)SCC(N)=O,–,> 100 µM,–,> 100 µM,–,> 100 µM,–,> 100,–,> 100 µM,–,> 100 µM,–,> 100 µM,–,> 100 µM,–,> 100 µM,–,> 100 µM
O=C1C=C(OCCCl)C(=O)c2c(O)ccc(O)c21,0.215,0.34 µM and 0.911 µM,2.15,2.05 µM and 4.67 µM,3,5.55 µM and 6.83 µM,9.41,–,1.58,2.82 µM and 2.93 µM,1.75,3.88 µM and 3.16 µM,0.741,0.32 µM and 2.19 µM,0.399,0.472 µM and 1.75 µM,2.01,2.98 µM and 3.56 µM,1.33,1.33 µM and 3.2 µM
Nc1cc(-c2ccccc2)n(C(=O)Nc2ccc(Oc3ccccc3)cc2)n1,> 100,> 100 µM,69,> 100 µM,69.7,> 100 µM,75.4,> 100,30.1,> 100 µM,28.9,77.2 µM,> 100,> 100 µM,61.7,> 100 µM,96.3,> 100 µM,53.5,> 100 µM
Cc1cn(Cc2ccccc2CCl)c(=O)n(Cc2ccccc2CCl)c1=O,2.03,4.02 µM,1.98,4.67 µM,2.92,6.53 µM,2.22,6.36,2.47,5.65 µM,1.86,3.3 µM,1.69,3.28 µM,1.36,4.77 µM,2.61,9.69 µM,1.55,3.18 µM
